Literature values, collected in patent publication US10022309B2, “Composition, comprising hydrofluoric acid, for inhibiting dental erosion” ([…], priority 2004, dated 2018).

How the values were obtained:
[1] = aqueous solution
[2] = pre-treatment with 1% neutral NaF or 4% TiF4; 50 mM citric acid with calcium and phosphate, pH 3, 30 min; without treatment 4.5 um
[3] = 24 h treatment (1.2% NaF or Duraphat varnish); then cola-drink pH 2.6 for 4 min

Row | SMILES | pKa [1] | mean lesion depth [2] [um] | hardness of enamel compared with untreated control [3]
1 | F [hydrofluoric acid] | 3.45 |  | 
2 | [F][Ti]([F])([F])[F] [TiF4, titanium tetrafluoride] |  | 2.7 | 
3 | [F-].[Na+] [NaF, sodium fluoride] |  | 3.5 | improved
